Laboratory results reported in PubChem BioAssay AID226 (DTP/NCI, 2004).
Where “and” joins values, the source holds several entries; their conditions need not be identical. Equal values may be shown once. Toxic doses and inconclusive results are not listed.

Tested on: B6C3F1 mice, intracerebral ependymoblastoma, median survival T/C
Assay: NCI In Vivo Anticancer Drug Screen. Data for tumor model Ependymoblastoma (intracerebral) in B6C3F1 mice
Details: endpoint: median survival time, higher = longer survival
Description: The antitumor activity of compounds was measured in mice bearing transplantable tumors. Survival or tumor size were measured and the results are expressed as the measurement made in the treated group (T) divided by the measurement made in the vehicle treated control group (C). The tumor model used in this assay is Ependymoblastoma (intracerebral) in B6C3F1 mice

[1] = dose: 64.0 mg/kg/injection, schedule: Q01DX005 (ip), vehicle: Klucel (hydroxypropylcellulose) (HPC)
[2] = dose: 128.0 mg/kg/injection, schedule: Q01DX005 (ip), vehicle: Klucel (hydroxypropylcellulose) (HPC)
[3] = dose: 256.0 mg/kg/injection, schedule: Q01DX005 (ip), vehicle: Klucel (hydroxypropylcellulose) (HPC)
[4] = dose: 512.0 mg/kg/injection, schedule: Q01DX005 (ip), vehicle: Klucel (hydroxypropylcellulose) (HPC)
[5] = dose: 8.0 mg/kg/injection, schedule: Q01DX005 (ip), vehicle: saline with Tween-80
[6] = dose: 16.0 mg/kg/injection, schedule: Q01DX005 (ip), vehicle: saline with Tween-80
[7] = dose: 32.0 mg/kg/injection, schedule: Q01DX005 (ip), vehicle: saline with Tween-80
[8] = dose: 128.0 mg/kg/injection, schedule: Q01DX005 (ip), vehicle: saline with Tween-80
[9] = dose: 64.0 mg/kg/injection, schedule: Q01DX005 (ip), vehicle: saline with Tween-80

Which results are given for CCCC(=O)OCC1OC(n2cnc3c(=S)nc(N)[nH]c32)C(OC(=O)CCC)C1OC(=O)CCC (stereo not given)?
T/C (dose: 3.12 mg/kg/injection, schedule: Q01DX005 (ip), vehicle: Klucel (hydroxypropylcellulose) (HPC)): 102 % of control and 113 % of control; T/C (dose: 6.25 mg/kg/injection, schedule: Q01DX005 (ip), vehicle: Klucel (hydroxypropylcellulose) (HPC)): 98 % of control and 104 % of control; T/C (dose: 12.5 mg/kg/injection, schedule: Q01DX005 (ip), vehicle: Klucel (hydroxypropylcellulose) (HPC)): 106 % of control

What does the source list for Nc1ncnc2c1ncn2C1OC(CO)C(O)C1O (stereo not given)?
T/C [1]: 101 % of control; T/C [2]: 92 % of control; T/C [3]: 96 % of control; T/C [4]: 94 % of control; T/C (dose: 1024.0 mg/kg/injection, schedule: Q01DX005 (ip), vehicle: Klucel (hydroxypropylcellulose) (HPC)): 98 % of control

Which T/C (dose: 25.0 mg/kg/injection, schedule: Q01DX005 (ip), vehicle: saline with Tween-80) does the source give for CCCC(=O)OCC1OC(n2cnc3c(=S)nc[nH]c32)C(OC(=O)CCC)C1OC(=O)CCC (stereo not given) here?
The T/C was 103 % of control.

And the T/C (dose: 50.0 mg/kg/injection, schedule: Q01DX005 (ip), vehicle: saline with Tween-80)?
The T/C was 105 % of control.

How did the T/C (dose: 1.0 mg/kg/injection, schedule: Q04DX003 (ip), vehicle: Klucel (hydroxypropylcellulose) (HPC)) turn out when O=C1c2ccccc2C(=O)c2c(NCCNCCO)ccc(NCCNCCO)c21 was run?
The T/C was 107 % of control.

What about the T/C (dose: 1.0 mg/kg/injection, schedule: Q04DX003 (ip), vehicle: water) of the same compound?
The T/C was 102 % of control.

And the T/C (dose: 2.0 mg/kg/injection, schedule: Q01DX005 (ip), vehicle: saline with Tween-80)?
Its T/C is 102 % of control [middle of 4 runs].

What about the T/C (dose: 2.0 mg/kg/injection, schedule: Q04DX003 (ip), vehicle: Klucel (hydroxypropylcellulose) (HPC)) of the same compound?
Its T/C is 97 % of control.

And the T/C (dose: 2.0 mg/kg/injection, schedule: Q04DX003 (ip), vehicle: water)?
The T/C was 101 % of control.

What about the T/C (dose: 4.0 mg/kg/injection, schedule: Q01DX005 (ip), vehicle: saline with Tween-80) of the same compound?
Its T/C is 101 % of control [middle of 4 runs].

And the T/C (dose: 4.0 mg/kg/injection, schedule: Q04DX003 (ip), vehicle: Klucel (hydroxypropylcellulose) (HPC))?
Its T/C is 101 % of control.

And the T/C (dose: 4.0 mg/kg/injection, schedule: Q04DX003 (ip), vehicle: water)?
Its T/C is 92 % of control.

And the T/C [5]?
The T/C was 109 % of control [middle of 4 runs].

And the T/C (dose: 8.0 mg/kg/injection, schedule: Q04DX003 (ip), vehicle: Klucel (hydroxypropylcellulose) (HPC))?
The T/C was 110 % of control.

What about the T/C (dose: 8.0 mg/kg/injection, schedule: Q04DX003 (ip), vehicle: water) of the same compound?
The T/C was 102 % of control.

And the T/C [6]?
The T/C was 113 % of control [middle of 4 runs].

What about the T/C (dose: 16.0 mg/kg/injection, schedule: Q04DX003 (ip), vehicle: Klucel (hydroxypropylcellulose) (HPC)) of the same compound?
The T/C was 108 % of control.

And the T/C (dose: 16.0 mg/kg/injection, schedule: Q04DX003 (ip), vehicle: water)?
The T/C was 92 % of control.

What about the T/C [7] of the same compound?
Its T/C is 94 % of control and 110 % of control and 116 % of control.

What about the T/C (dose: 32.0 mg/kg/injection, schedule: Q04DX003 (ip), vehicle: Klucel (hydroxypropylcellulose) (HPC)) of the same compound?
Its T/C is 108 % of control.

What about the T/C (dose: 32.0 mg/kg/injection, schedule: Q04DX003 (ip), vehicle: water) of the same compound?
Its T/C is 94 % of control.

And the T/C (dose: 64.0 mg/kg/injection, schedule: Q04DX003 (ip), vehicle: Klucel (hydroxypropylcellulose) (HPC))?
The T/C was 97 % of control.

What about the T/C (dose: 128.0 mg/kg/injection, schedule: Q04DX003 (ip), vehicle: Klucel (hydroxypropylcellulose) (HPC)) of the same compound?
The T/C was 92 % of control.

C#CCN(C)/N=N/c1nc[nH]c1C(N)=O was tested. Which T/C [7] did it give?
The T/C was 150 % of control.

What about the T/C [8] of the same compound?
Its T/C is 157 % of control.

For Nc1nncs1, which T/C (dose: 6.25 mg/kg/injection, schedule: Q01DX009 (ip), vehicle: saline) is on record?
Its T/C is 91 % of control.

And the T/C (dose: 12.5 mg/kg/injection, schedule: Q01DX009 (ip), vehicle: saline)?
Its T/C is 96 % of control.

And the T/C (dose: 25.0 mg/kg/injection, schedule: Q01DX009 (ip), vehicle: saline)?
The T/C was 102 % of control.

And the T/C (dose: 50.0 mg/kg/injection, schedule: Q01DX009 (ip), vehicle: saline)?
Its T/C is 115 % of control.

And the T/C [9]?
The T/C was 110 % of control.

And the T/C (dose: 100.0 mg/kg/injection, schedule: Q01DX009 (ip), vehicle: saline)?
Its T/C is 107 % of control.

With CO[C@H]1C[C@@H]2CC[C@@H](C)[C@@](O)(O2)C(=O)C(=O)N2CCCC[C@H]2C(=O)O[C@H]([C@H](C)C[C@@H]2CC[C@@H](O)[C@H](OC)C2)CC(=O)[C@H](C)C=C(C)[C@@H](O)[C@@H](OC)C(=O)[C@H](C)C[C@H](C)/C=C/C=C/C=C1C as the compound, how does the T/C (dose: 3.12 mg/kg/injection, schedule: Q01DX009 (ip), vehicle: clinical formulation) read?
The T/C was 118 % of control.

What about the T/C (dose: 6.25 mg/kg/injection, schedule: Q01DX005 (ip), vehicle: saline with Tween-80) of the same compound?
Its T/C is 113 % of control.

And the T/C (dose: 12.5 mg/kg/injection, schedule: Q01DX009 (ip), vehicle: gum acacia)?
The T/C was 202 % of control.

What about the T/C (dose: 25.0 mg/kg/injection, schedule: Q01DX005 (oral), vehicle: saline with Tween-80) of the same compound?
The T/C was 106 % of control.

And the T/C (dose: 25.0 mg/kg/injection, schedule: Q01DX009 (ip), vehicle: clinical formulation)?
Its T/C is 156 % of control.

What about the T/C (dose: 25.0 mg/kg/injection, schedule: Q01DX009 (ip), vehicle: gum acacia) of the same compound?
The T/C was 198 % of control.

What about the T/C (dose: 50.0 mg/kg/injection, schedule: Q01DX005 (oral), vehicle: saline with Tween-80) of the same compound?
Its T/C is 107 % of control and 108 % of control.

What about the T/C (dose: 50.0 mg/kg/injection, schedule: Q01DX009 (ip), vehicle: clinical formulation) of the same compound?
Its T/C is 152 % of control and 156 % of control.

And the T/C (dose: 50.0 mg/kg/injection, schedule: Q01DX009 (ip), vehicle: gum acacia)?
Its T/C is 177 % of control.

What about the T/C (dose: 100.0 mg/kg/injection, schedule: Q01DX005 (oral), vehicle: saline with Tween-80) of the same compound?
Its T/C is 100 % of control and 107 % of control.

What about the T/C (dose: 100.0 mg/kg/injection, schedule: Q01DX009 (ip), vehicle: clinical formulation) of the same compound?
The T/C was 162 % of control and 167 % of control.

And the T/C (dose: 100.0 mg/kg/injection, schedule: Q01DX009 (ip), vehicle: gum acacia)?
Its T/C is 185 % of control.

And the T/C (dose: 200.0 mg/kg/injection, schedule: Q01DX005 (ip), vehicle: saline with Tween-80)?
Its T/C is 113 % of control and 193 % of control and 207 % of control.

What about the T/C (dose: 200.0 mg/kg/injection, schedule: Q01DX005 (oral), vehicle: saline with Tween-80) of the same compound?
The T/C was 103 % of control and 108 % of control.

And the T/C (dose: 400.0 mg/kg/injection, schedule: Q01DX005 (oral), vehicle: saline with Tween-80)?
Its T/C is 108 % of control and 119 % of control.

What about the T/C (dose: 400.0 mg/kg/injection, schedule: Q01DX009 (ip), vehicle: gum acacia) of the same compound?
Its T/C is 198 % of control.

And the T/C (dose: 800.0 mg/kg/injection, schedule: Q01DX005 (oral), vehicle: saline with Tween-80)?
Its T/C is 124 % of control.

Which T/C [5] does the source give for CC1=C(/C=C/C(C)=C/C=C/C(C)=C/C(=O)O)C(C)(C)CCC1 here?
Its T/C is 99 % of control.

What about the T/C [6] of the same compound?
Its T/C is 119 % of control.

And the T/C [7]?
The T/C was 115 % of control.

And the T/C [9]?
Its T/C is 118 % of control.

What about the T/C [8] of the same compound?
Its T/C is 109 % of control.

With NS(=O)(=O)c1cc2c(cc1Cl)NC=NS2(=O)=O as the compound, how does the T/C (dose: 37.5 mg/kg/injection, schedule: Q01DX005 (ip), vehicle: Klucel (hydroxypropylcellulose) (HPC)) read?
The T/C was 109 % of control.

And the T/C (dose: 75.0 mg/kg/injection, schedule: Q01DX005 (ip), vehicle: Klucel (hydroxypropylcellulose) (HPC))?
The T/C was 96 % of control.

What about the T/C (dose: 150.0 mg/kg/injection, schedule: Q01DX005 (ip), vehicle: Klucel (hydroxypropylcellulose) (HPC)) of the same compound?
The T/C was 90 % of control.

And the T/C (dose: 300.0 mg/kg/injection, schedule: Q01DX005 (ip), vehicle: Klucel (hydroxypropylcellulose) (HPC))?
Its T/C is 107 % of control.

And the T/C (dose: 600.0 mg/kg/injection, schedule: Q01DX005 (ip), vehicle: Klucel (hydroxypropylcellulose) (HPC))?
The T/C was 102 % of control.

Which results are given for N=[N+]=CC(=O)CCC(NC(=O)C(CCC(=O)C=[N+]=N)NC(=O)CCC(N)C(=O)O)C(=O)O (stereo not given)?
T/C (dose: 0.05 mg/kg/injection, schedule: Q01DX005 (ip), vehicle: Klucel (hydroxypropylcellulose) (HPC)): 100 % of control and 106 % of control; T/C (dose: 0.1 mg/kg/injection, schedule: Q01DX005 (ip), vehicle: Klucel (hydroxypropylcellulose) (HPC)): 90 % of control and 107 % of control; T/C (dose: 0.2 mg/kg/injection, schedule: Q01DX005 (ip), vehicle: Klucel (hydroxypropylcellulose) (HPC)): 99 % of control and 108 % of control; T/C (dose: 0.4 mg/kg/injection, schedule: Q01DX005 (ip), vehicle: Klucel (hydroxypropylcellulose) (HPC)): 97 % of control and 114 % of control

Which results are given for CCC(=O)O[C@H]1CC[C@H]2[C@@H]3CCC4=CC(=O)CC[C@]4(C)[C@H]3CC[C@]12C?
T/C (dose: 8.0 mg/kg/injection, schedule: Q01DX005 (ip), vehicle: Klucel (hydroxypropylcellulose) (HPC)): 97 % of control and 100 % of control; T/C (dose: 16.0 mg/kg/injection, schedule: Q01DX005 (ip), vehicle: Klucel (hydroxypropylcellulose) (HPC)): 101 % of control and 87 % of control; T/C (dose: 32.0 mg/kg/injection, schedule: Q01DX005 (ip), vehicle: Klucel (hydroxypropylcellulose) (HPC)): 101 % of control; T/C [1]: 106 % of control; T/C [2]: 102 % of control and 87 % of control; T/C [3]: 95 % of control; T/C [4]: 95 % of control and 86 % of control
